The target in data set [1] is T1, Multidrug resistance-associated protein 1 (Homo sapiens, UniProt P33527). In words: Activity at MRP1 in human HeLa T5 cells assessed as ATP-dependent drug transport at 50 nM measured per mg of protein. It is filed as cell-based. To be noted: 0.05 µM.
Data set [2] concerns the target T1, Multidrug resistance-associated protein 1. In words: Activity of MRP1.

T1 sequence (P33527 whole entry): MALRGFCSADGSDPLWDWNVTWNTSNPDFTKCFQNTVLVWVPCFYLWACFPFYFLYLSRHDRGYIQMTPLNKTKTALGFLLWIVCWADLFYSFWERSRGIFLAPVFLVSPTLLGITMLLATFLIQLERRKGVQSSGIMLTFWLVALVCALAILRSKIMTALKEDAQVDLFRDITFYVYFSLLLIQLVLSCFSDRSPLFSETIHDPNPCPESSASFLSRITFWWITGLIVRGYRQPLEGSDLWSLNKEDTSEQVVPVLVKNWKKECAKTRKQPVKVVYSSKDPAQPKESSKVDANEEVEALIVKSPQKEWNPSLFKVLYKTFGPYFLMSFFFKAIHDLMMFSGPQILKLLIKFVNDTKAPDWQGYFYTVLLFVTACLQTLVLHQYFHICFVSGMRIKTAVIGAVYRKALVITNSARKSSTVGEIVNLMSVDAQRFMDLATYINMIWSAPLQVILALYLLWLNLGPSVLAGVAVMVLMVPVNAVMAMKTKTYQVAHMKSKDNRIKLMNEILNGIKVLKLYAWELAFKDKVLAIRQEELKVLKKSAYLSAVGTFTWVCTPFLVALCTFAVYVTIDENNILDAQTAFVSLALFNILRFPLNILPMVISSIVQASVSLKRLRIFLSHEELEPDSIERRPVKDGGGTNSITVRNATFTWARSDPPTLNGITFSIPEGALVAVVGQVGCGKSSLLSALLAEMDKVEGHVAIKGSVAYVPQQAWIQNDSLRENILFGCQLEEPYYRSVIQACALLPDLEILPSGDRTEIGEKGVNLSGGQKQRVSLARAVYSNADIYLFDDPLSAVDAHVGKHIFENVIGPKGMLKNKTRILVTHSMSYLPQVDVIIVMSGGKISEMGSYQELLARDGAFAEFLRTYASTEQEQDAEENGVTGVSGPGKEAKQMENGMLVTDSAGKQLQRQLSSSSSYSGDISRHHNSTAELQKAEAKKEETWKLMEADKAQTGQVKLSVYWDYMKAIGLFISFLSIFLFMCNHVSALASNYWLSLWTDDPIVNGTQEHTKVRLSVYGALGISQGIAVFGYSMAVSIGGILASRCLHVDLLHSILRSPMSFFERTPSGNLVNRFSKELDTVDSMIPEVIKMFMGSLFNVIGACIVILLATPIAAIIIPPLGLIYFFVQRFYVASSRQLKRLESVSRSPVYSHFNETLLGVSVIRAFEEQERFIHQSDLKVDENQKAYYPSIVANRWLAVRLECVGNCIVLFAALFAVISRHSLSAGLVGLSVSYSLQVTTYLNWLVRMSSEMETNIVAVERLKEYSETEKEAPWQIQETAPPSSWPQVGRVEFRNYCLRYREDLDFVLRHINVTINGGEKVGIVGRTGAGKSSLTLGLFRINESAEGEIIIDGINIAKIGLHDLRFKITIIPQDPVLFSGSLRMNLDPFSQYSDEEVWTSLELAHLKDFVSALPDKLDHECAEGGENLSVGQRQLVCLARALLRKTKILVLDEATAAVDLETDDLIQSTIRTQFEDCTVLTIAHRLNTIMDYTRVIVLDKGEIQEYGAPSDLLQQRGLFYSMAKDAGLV

In the case of `CCCCC/C=C\C\C=C/C=C/C=C/[C@@H](SC[C@H](N)C(=O)O)[C@@H](O)CCCC(=O)O` [LEUKOTRIEN E4], the Activity in data set [1] was found to be 8 pmol/min. Consider `CCCCC/C=C\C\C=C/C=C/C=C/[C@@H](SC[C@H](N)C(=O)NCC(=O)O)[C@@H](O)CCCC(=O)O` [LEUKOTRIENE D4], for which, in data set [1], the Activity stood at 15 pmol/min. With `Cc1ccc(N(CC(=O)O)CC(=O)O)c(OCCOc2cc(-c3c4cc(Cl)c(=O)cc-4oc4cc(O)c(Cl)cc34)ccc2N(CC(=O)O)CC(=O)O)c1`, the Km (in general, the substrate concentration at which the rate is half of its maximum) in data set [2] came to 12 µM.

The values above are taken from ChEMBL document CHEMBL1140936, “Topological polar surface area defines substrate transport by multidrug resistance associated protein 1 (MRP1/ABCC1)” (J Med Chem, 2009).
